Data set [1] deals with liver steatosis and hepatitis in mice caused by a high-fat diet. The data set is described as follows: Mouse liver steatosis and hepatitis model induced by a high-fat diet. Format: in vivo, C57/6J mice. Particulars: 22 weeks, vs model group. The protocol:
Experimental method: Healthy male C57/6J mice were fed with a high-fructose, high-fat, and high-cholesterol feed to prepare mouse liver steatosis and hepatitis models, and a control group was fed with a low-fat and low-sugar control feed. An SMI0 intervention group was divided into a low-dose intervention group and a high-dose intervention group, which were intragastrically administered with the compound SMI0 at 30 mg/kg and 150 mg/kg every day from the beginning of modeling to the 22nd week of modeling. At the end of the 22-week experiment, blood was collected from the orbit, a body weight was measured, and then the mice each were sacrificed. The weight and appearance of a liver (color, texture, and presence or absence of nodules of the liver) were recorded. Some liver specimens were subjected to HE staining and then observed, and a steatosis score of mice in each group was recorded; and Masson staining was conducted to evaluate a liver fibrosis status of mice, and an oil red O staining area percentage and an LCA staining inflammation score were determined (model group, n=8 mice; SMI0 compound low-dose group, […]).
The pathological results of HE staining of a liver tissue were subjected to quantitative scoring based on the following criteria to determine a steatosis severity:
The pathological results of Masson staining of a liver tissue were subjected to quantitative scoring based on the following criteria to determine a fibrosis severity: […]

The subject of data set [2] is glioma cell line GL261 brain in situ transplanted tumor. Put plainly: Mouse glioma model, in situ implantation of GL261 cells into the brain. Format: in vivo, C57/BL6 mouse. The protocol:
Experimental method: A female C57/BL6 mouse glioma model was constructed through in situ implantation of a glioma cell line GL261, with a cell concentration of 1*10^6. Experimental groups: sham-operated group (n=9); model group (n=10); temozolomide group (50 mg/kg, ig, n=11); SMI0 low-dose group (3.3 mg/kg, ig, n=13); SMI0 medium-dose group (10 mg/kg, ig, n=13); and SMI0 high-dose group (30 mg/kg, ig, n=13). The SMI0 intervention group was intragastrically administered with the compound SMI0 every day starting from three days before modeling, and the positive drug group was administered on day 3 to day 7 and day 10 to day 14 after surgery. The modeling took about 21 days. At the end of the experiment, blood was collected from the orbit, a body weight was measured, then the mice each were sacrificed, and brain tissues were collected. Brain tissue specimens were subjected to HE staining, and then the brain tissue lesion and tumorigenesis of mice in each group were observed.

The test system of data set [3] is LPS-induced sepsis in rats. Put plainly: LPS-induced rat sepsis model. Format: in vivo, SD rat. Conditions: SMI0 150 mg/kg ig or celecoxib 5 mg/kg ig 30 min before LPS 5 mg/kg ip; 4 h, 5 h, 6 h; vs model group. The protocol:
Rats: An SD rat sepsis model was constructed through single intraperitoneal injection of LPS (5 mg/kg). 30 min before LPS administration, rats in the model group were administered with NS (0.5 mL/kg, i.g.), rats in the positive control group were administered with celecoxib (5 mg/kg, i.g.), and rats in the CYP2E1 inhibition group were administered with the compound SMI0 (150 mg/kg, i.g.). After LPS administration, a body temperature of each rat was measured and recorded every hour until 9 h (control group, n=8 rats; model group, n=10 rats; celecoxib group, n=10 rats; and SMI0 compound group, n=10 rats).

The next data set relates to other CYP enzymes. Put plainly: Determination of selectivity of a CYP2E1 inhibitor: other CYP enzymes. The data set is classed as biochemical. Particulars: mixed human liver microsome, probe substrates. The text has this: With a mixed liver microsome of a healthy individual as a research object, probe drugs CYP1A2, CYP2A6, CYP2B6, CYP2C8, CYP2C9, CYP2C19, CYP2D6, CYP2E1, and CYP3A4 were selected to determine an in vitro inhibitory effect of an inhibitor to be tested on the metabolism of the probe drugs CYP1A2, CYP2A6, CYP2B6, CYP2C8, CYP2C9, CYP2C19, CYP2D6, CYP2E1, and CYP3A4 for the mixed liver microsome of the healthy human, and the selectivity of the inhibitor to be tested for a CYP2E1 inhibitory effect was evaluated.
The CYP1A2 probe is 6.25 μM to 800 μM phenacetin or 27.5 μM to 12,520 μM caffeine; • the CYP2A6 probe is 0.156 μM to 20 μM coumarin or 12.5 μM to 2,000 μM nicotine; • the CYP2B6 probe is 7.8 μM to 500 μM bupropion or 0.25 mM to 30 mM cyclophosphamide; • the CYP2C8 probe is 2.5 μM to 80 μM paclitaxel or 0.125 μM to 128 μM amodiaquine; • the CYP2C9 probe is 31.25 μM to 2,000 μM tolbutamide or 0.1 μM to 200 μM diclofenac; • the CYP2C19 probe is 3.9 μM to 500 μM omeprazole or 1.95 μM to 1,000 μM mephenytoin; • the CYP2D6 probe is 0.625 μM to 96 μM dextromethorphan or 0.0195 μM to 80 μM propafenone; and • the CYP3A4 probe is 0.39 μM to 50 μM midazolam or 1.98 μM to 1,000 μM testosterone.
An incubation system in a total volume of 100 μL was adopted, including a substrate, an inhibitor of different concentrations, a liver microsomal protein, and PBS. […]
(In general: Microsomes from liver hold many membrane-bound enzymes, among them those of drug oxidation.)

Where [4] appears, read: SMI0 high-dose 150 mg/kg ig daily.
The mark [5] stands for this setting: SMI0 low-dose 30 mg/kg ig daily.

Turning to `CC(=O)c1scnc1C` [SMI0], in data set [1] (setting [4]), the “liver inflammation level (number of LCA-positive cell staining foci)” value is “significantly reduced”, the “oil red O staining area percentage” value was “significantly reduced” and the steatosis score entry is given as “significantly reduced”. Also, in data set [1] (setting [5]), the liver coefficient entry is “significantly reduced”, the “oil red O staining area percentage” value is on record as “significantly reduced” and the steatosis score result is listed as “significantly reduced”. Besides, the “glioma growth in mice” value in data set [2] (SMI0 intervention (3.3, 10, 30 mg/kg ig daily), about 21 days, vs model group) is “significantly inhibited”. Further, in data set [2] (as high as, SMI0 high-dose group 30 mg/kg ig), the “tumor proliferation inhibition rate” value was found to be 97.6%. Moreover, the “increase in body temperature in the LPS-induced sepsis rat model” value in data set [3] is “avoided”. Also, in the data set on other CYP enzymes, the “inhibitory effect for other CYP enzymes” value is “no significant inhibitory effect”.

These data come from patent publication US20230277508A1, “USE OF COMPOUND AS CYP2E1 INHIBITOR” (SHANGHAI LING XI BIOTECHNOLOGY DEVELOPMENT CO., LTD., priority 2020, published 2023).
